Source: patent US9545461B2, “Anti-microbial peptides and methods of use thereof” (priority 2011, dated 2017)
Square brackets hold non-standard residues; d marks the D form. Ends that are not written are not given here. pY = N[C@@H](Cc1ccc(OP(=O)(O)O)cc1)C(=O)O

Columns and labels:
[1] = system: cystic fibrosis isolate 2192; conditions: Pseudomonas aeruginosa, 3 h, 200 μg/ml
Protocol: (§1) Crude lysates of media-treated and human tear fluid-treated cells were collected by freeze-thawing in KBM or saline (for assays) or 10 mM Tris-HCl (pH 8.5) (for mass spectrometry). Serial fractionation of lysates was performed using centrifugal filters with cutoffs at ˜100, ˜10 and ˜3 kDa (Millipore). […] Synthetic peptides of hKRT6A were obtained from Biomatik at a purity of >95%. Antimicrobial activity against Pseudomonas aeruginosa clinical and laboratory isolates, as well as ATCC strains of Escherichia coli, Enterococcus faecalis, Serratia marcescens, Staphylococcus epidermidis, Staphylococcus aureus, Streptococcus pyogenes and Candida albicans (˜10^6 cfu/ml each) were evaluated by viable counts at 3 h. […] Statistical analysis between two groups was performed using Student's t-Test.
(§2) Pseudomonas aeruginosa corneal clinical isolates 6294 (invasive) and 6206 (cytotoxic), cystic fibrosis clinical isolate 2192, laboratory strains PAO1 (invasive), PA14 (cytotoxic), PAC1R and its series of isogenic LPS mutants (PAC1R algC-, 557, 605, 611) were used in this study. […] Starting inoculum at a concentration of ˜10^8 cfu/ml was prepared fresh by suspending bacteria in KBM media (Lonza) until OD650 reading is ˜0.1. […]

[2] = system: P. aeruginosa strain 6206; format: cell-based; conditions: Pseudomonas aeruginosa, 3 h, 200 μg/ml
Protocol: (§3) Antimicrobial activity against Pseudomonas aeruginosa clinical and laboratory isolates, as well as ATCC strains of Escherichia coli, Enterococcus faecalis, Serratia marcescens, Staphylococcus epidermidis, Staphylococcus aureus, Streptococcus pyogenes and Candida albicans (˜10^6 cfu/ml each) were evaluated by viable counts at 3 h. Protection against bacterial invasion (quantified by gentamicin survival) and cytotoxicity (trypan blue staining) were assessed using fresh TiHCE cells inoculated with P. aeruginosa clinical isolates 6294 (invasive, ˜10^6 cfu for 2 h) or 6206 (cytotoxic, ˜10^4 cfu for 3 h). Peptide binding and membrane permeabilization by hKRT6A 19mer was determined by N-terminal TAMRA-tagged peptides (110 μM) and an impermeant SYTOX blue nucleic acid stain (5 μM; Invitrogen).
(§4) For antimicrobial spectrum analysis, Escherichia coli (ATCC 25922), Enterococcus faecalis (ATCC 51188), Serratia marcescens (ATCC 43862), Staphylococcus epidermidis (ATCC 12228), Staphylococcus aureus (ATCC 29213), Streptococcus pyogenes (ATCC 19615) and Candida albicans (ATCC 90028) were used. […] Starting inoculum at a concentration of ˜10^8 cfu/ml was prepared fresh by suspending bacteria in KBM media (Lonza) until OD650 reading is ˜0.1. […]

laboratory strain PAO1 = assay: Antimicrobial activity assay (viable counts at 3 h); format: cell-based, Pseudomonas aeruginosa; conditions: after 3 h, 200 μg/ml in 0.9% NaCl
Protocol: as §1, §2

[3] = system: P. aeruginosa clinical isolate 6294; format: cell-based; conditions: Pseudomonas aeruginosa, 3 h, 200 μg/ml
Protocol: as §1, §2

laboratory strain PA14 = assay: Antimicrobial activity assay (viable counts at 3 h); format: cell-based, Pseudomonas aeruginosa; conditions: 200 μg/ml (FIG. 2D)
Protocol: as §1, §2

[4] = system: P. aeruginosa clinical isolate 6206 cytotoxicity to TiHCE cells; assay: Cytotoxicity assay (trypan blue staining) in TiHCE cells; format: cell-based, Pseudomonas aeruginosa; conditions: 3 h
Protocol: To assess protective activity of against bacterial invasion, high-calcium treated TiHCE cells were incubated with P. aeruginosa clinical isolate 6294 (40 μl/well; 10^6 cfu/ml in crude lysates/lysate fractions versus KBM control for 3 h or 10^8 cfu/ml in peptide-containing saline versus no-peptide saline control for 2 h), followed by gentamicin treatment (200 μg/ml for 1 h). Viable intracellular bacteria was collected with 0.25% Triton-X in PBS (100 μl/well) and quantified by plating on TSA. To assay protection against bacterial cytotoxicity, P. aeruginosa clinical isolate 6206 was used instead (40 μl/well; 10^6 cfu/ml for 3 h). Dead cells were quantified by Trypan-blue (0.04%) staining.

[5] = system: human corneal epithelial cells (TiHCE); assay: Effect of peptide treatment alone on epithelial cells; format: cell-based
[6] = system: Escherichia coli (ATCC 25922); assay: Antimicrobial spectrum analysis; format: cell-based; conditions: 200 μg/mL, 3 h
Protocol: as §3, §4

[7] = system: Streptococcus pyogenes (ATCC 19615); format: cell-based; conditions: 200 μg/mL, 3 h
Protocol: (§5) Telomerase-immortalized human corneal epithelial cells (TiHCE) were cultured as described (Robertson D M et al., 2005 Invest Ophthalmol Vis Sci. 46:470-478). Crude lysates of media-treated and human tear fluid-treated cells were collected by freeze-thawing in KBM or saline (for assays) or 10 mM Tris-HCl (pH 8.5) (for mass spectrometry). Serial fractionation of lysates was performed using centrifugal filters with cutoffs at ˜100, ˜10 and ˜3 kDa (Millipore). […] Synthetic peptides of hKRT6A were obtained from Biomatik at a purity of >95%. Antimicrobial activity against Pseudomonas aeruginosa clinical and laboratory isolates, as well as ATCC strains of Escherichia coli, Enterococcus faecalis, Serratia marcescens, Staphylococcus epidermidis, Staphylococcus aureus, Streptococcus pyogenes and Candida albicans (˜10^6 cfu/ml each) were evaluated by viable counts at 3 h. […] Statistical analysis between two groups was performed using Student's t-Test.
as §4

[8] = system: Serratia marcescens (ATCC 43862); assay: Antimicrobial spectrum analysis; format: cell-based; conditions: 200 μg/mL, 3 h
Protocol: as §1, §2

[9] = system: Enterococcus faecalis (ATCC 51188); assay: Antimicrobial spectrum analysis; format: cell-based; conditions: 200 μg/mL, 3 h
Protocol: as §3, §4

[10] = system: Staphylococcus epidermidis (ATCC 12228); assay: Antimicrobial spectrum analysis; format: cell-based; conditions: 200 μg/mL, 3 h
Protocol: as §3, §4

[11] = system: Candida albicans (ATCC 90028); assay: Antimicrobial spectrum analysis; format: cell-based; conditions: 200 μg/mL, 3 h
Protocol: as §3, §4

[12] = system: Staphylococcus aureus (ATCC 29213); assay: Antimicrobial spectrum analysis; format: cell-based; conditions: 200 μg/mL, 3 h
Protocol: as §5, §4

[13] = Bactericidal effect of phosphorylated vs non-phosphorylated 19-mer (FIG. 6); format: cell-based
Excerpt: Synthetic 19-mer KDAMP peptides were synthesized with or without tyrosine phosphorylation. The bactericidal effect of the peptides was compared.

RAIGGGLSSVGGGSSTIKY [19mer, RAIGGGLSSVGGGSSTIKY]
reduced viability [1]: 96.9% | reduced viability [2]: 99.7% | reduced viability (laboratory strain PAO1): 96.1% | reduced viability [3]: 97.5% | reduced viability (laboratory strain PA14): 98.7% | protection against bacterial induced cytotoxicity compared to controls [4]: 85.1% | impact of peptide treatment alone on epithelial cells (morphology, trypan blue exclusion) [5]: not visibly impacted

AIGGGLSSVGGGSSTIK [17mer, AIGGGLSSVGGGSSTIK]
activity (in words) [6]: neither the 19- nor the 17mer peptide was active | susceptibility (in words) [7]: not susceptible | activity (in words) [8]: neither the 19- nor the 17mer peptide was active | activity (in words) [9]: neither the 19- nor the 17mer peptide was active | activity (in words) [10]: neither the 19- nor the 17mer peptide was active | activity (in words) [11]: neither the 19- nor the 17mer peptide was active | activity (in words) [12]: neither the 19- nor the 17mer peptide was active

RAIGGGLSSVGGGSSTIK(phospho-Y) (RAIGGGLSSVGGGSSTIK[pY]) [phosphorylated 19-mer]
bactericidal activity compared with the non-phosphorylated 19-mer [13]: significantly increased bactericidal activity
